Assay results taken from patent publication US20110165119A1, “TELAPREVIR DOSING REGIMEN” (priority 2008, published 2011).

How the values were obtained:
HCV NS3-4A protease = molecular target: T1, HCV NS3-4A protease (Hepatitis C virus genotype 1a, UniProt P27958); assay: in vitro potency against HCV NS3-4A protease; format: biochemical; conditions: relative to telaprevir
T1 construct: against the HCV NS3-4A protease

[1] = in vivo; cited from earlier work

T1 sequence (P27958 1027-1657): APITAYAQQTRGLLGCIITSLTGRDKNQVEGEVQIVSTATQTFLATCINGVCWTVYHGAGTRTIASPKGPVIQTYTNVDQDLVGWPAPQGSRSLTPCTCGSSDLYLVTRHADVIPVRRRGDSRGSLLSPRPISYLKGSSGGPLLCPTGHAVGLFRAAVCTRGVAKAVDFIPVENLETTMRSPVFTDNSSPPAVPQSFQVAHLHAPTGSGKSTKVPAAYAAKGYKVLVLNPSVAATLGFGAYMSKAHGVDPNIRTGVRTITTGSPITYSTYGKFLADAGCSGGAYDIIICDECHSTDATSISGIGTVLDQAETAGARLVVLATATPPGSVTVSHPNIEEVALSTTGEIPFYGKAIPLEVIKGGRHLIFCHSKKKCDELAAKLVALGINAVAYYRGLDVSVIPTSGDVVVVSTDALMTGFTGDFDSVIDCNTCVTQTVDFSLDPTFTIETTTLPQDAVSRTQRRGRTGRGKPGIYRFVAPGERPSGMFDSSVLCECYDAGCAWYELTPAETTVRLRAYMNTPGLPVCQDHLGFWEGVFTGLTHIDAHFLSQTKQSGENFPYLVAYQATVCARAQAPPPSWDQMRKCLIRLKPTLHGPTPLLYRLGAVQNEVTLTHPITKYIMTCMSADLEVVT
T1 sequence (P27958 1658-1711): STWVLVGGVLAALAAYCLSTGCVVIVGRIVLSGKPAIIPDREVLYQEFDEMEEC

Row | SMILES | times less potent than telaprevir against the HCV NS3-4A protease (HCV NS3-4A protease) | oral bioavailability [1]
1 | CCCC(NC(=O)C1C2CCCC2CN1C(=O)C(NC(=O)C(NC(=O)c1cnccn1)C1CCCCC1)C(C)(C)C)C(=O)C(=O)NC1CC1 (single isomer, unassigned) [R-diastereisomer] | about 30 times | –
2 | CCC[C@H](NC(=O)[C@@H]1[C@H]2CCC[C@H]2CN1C(=O)[C@@H](NC(=O)[C@@H](NC(=O)c1cnccn1)C1CCCCC1)C(C)(C)C)C(=O)C(=O)NC1CC1 (single isomer, unassigned) [Telaprevir] | – | orally bioavailable
